How the values were obtained:
HO-1 protein = details: after injection of autologous arterial blood; compound i.v. 2 days; basilar arterial walls, day 2
Excerpt: The same animal model as in Example 1 was used to study changes in HO-1 protein expression level after the same treatment as shown in Example 1. The changes in protein expression level were detected by Coomassie staining and Western blotting, as described in the abovementioned reference. In this figure, the upper and lower panels show the results of Coomassie staining and Western blotting, respectively. Each of the lanes shown in FIG. 2 has the same definition as the corresponding sample in FIG. 1.

[1] = test system: delayed cerebral vasospasm
Protocol: The same model as in Example 1 was used to study changes over time in basilar artery diameter. The determination of basilar artery diameter was performed as described in the above-mentioned reference. That is, the diameter was measured angiographically on days 1 to 7 and expressed as a % change from the original diameter (% change before treatment was set to 0).
All data were expressed as mean±SEM.
The data was statistically processed such that intragroup comparison was performed by paired t-test and intergroup comparison was performed according to variance analysis.

HO-1 mRNA = details: blood i.c. + compound i.v. 1 mg/kg/min continuously for 2 days; basilar arterial walls, day 2; vs blood i.c.+saline i.v.
Protocol: The preparation of rat cerebral vasospasm model and the determination of HO-1 mRNA expression level were performed according to a documented method (see The Journal of Clinical Investigation, Vol. 104, No. 1, July 1999).
Each single hemorrhage model was injected with 0.5 ml autologous arterial blood into its cisterna magna. […] After administration, the level of mRNA expressed in basilar arterial walls was determined on day 2 using a quantitative RT-PCR technique.
It is for this reason that the mRNA expression level was determined on day 2.
All data were expressed as mean±SEM. The expression level of HO-2 was used as a denominator in calculating the ratio because the expression level of HO-2 was not assumed to change appreciably in this model and therefore, when used as a denominator, would enable changes in HO-1 expression level to be objectively evaluated while ignoring individual differences. […] The data were statistically processed according to variance analysis. A single asterisk (*) denotes a statistically significant difference from “saline i.c.” at p<0.05 level and two asterisks (**) denote a statistically significant difference from “blood i.c.+saline i.v.” at p<0.01 level.

CC(CNC(=O)c1cccnc1)NC(=O)c1cccnc1 (stereo not shown) [1,2-bis(nicotinamide)propane]
HO-1 protein induction (HO-1 protein): causes or enhances HO-1 protein induction | delayed cerebral vasospasm (% change in basilar artery diameter) ([1]; blood i.c. + compound i.v. continuously for 7 days, angiography days 1 to 7): significant amelioration of delayed cerebral vasospasm | diameter of cerebral blood vessels in the absence of hemorrhage ([1]; saline i.c. + compound i.v. continuously for 7 days): not affected | HO-1 mRNA expression level (HO-1/HO-2 ratio) (HO-1 mRNA): significant increase in HO-1 mRNA expression level
